The nature of the assay: The antagonist activity measured as inhibition of LTB4 response in aggregation of neutrophils.

The structures appear in SMILES notation.

For the molecule `COc1ccc(/C=C/CCCCOc2ccc3c(=O)c4cc(C(=O)O)ccc4oc3c2CCC(=O)O)cc1` [LY-210073], the midpoint of inhibition, the IC50, lay at 133 nM.

As for `CCCCCCCCCCOc1ccc2c(=O)c3cc(C(=O)O)ccc3oc2c1CCC(=O)O` [5-(2-Carboxy-ethyl)-6-decyloxy-9-oxo-9H-xanthene-2-carboxylic acid], it took 513 nM to reach half-maximal inhibition (IC50). This IC50 is about 3.9-fold higher than that of the molecule before.

Source of the values: BindingDB's records for doi:10.1021/jm00064a006 (Eli Lilly, 1993).
